# Assay results from patent US6395745B1, “Alkaloid halide salts of swainsonine and methods of use” (priority 1997, dated 2002).
# Test system: early erythroid progenitor cells (CFU-E)
# Assay: Murine bone marrow progenitor cell assay in methylcellulose, CFU-E
# Assay type: cell-based, C57BL/6 mice
# Description: Pathogen-free C57BL/6 female mice, 8-9 weeks old, obtained from Jackson Laboratories were used. The room environment and photoperiod were controlled: 24° C.; humidity, 50±20%; 12 hr light and 12 hr dark. Mice were housed one per cage with ad libitum accesses to standard pelleted commercial laboratory diet and to sterile (autoclaved) tap water.
# Swainsonine hydrochloride was manufactured by Seres Laboratories, Calif. FBS and methylcellulose (MethoCult M3330) were purchased from Stem Cell Technologies, Inc. (Vancouver. BC). Iscove's modified Dulbecco's medium was prepared using powdered media from Gibco BRL, deionized water and filter sterilization. For the handling of cells, the media was supplemented with 2% FBS and 50 μM β-mercaptoethanol (referred to as IMDM/FBS).
# The healthy and GD0039 treated mice were euthanized by CO2 asphyxiation. Bone marrow (BM) cell suspensions were prepared under sterile conditions by flushing both femurs and tibiae with IMDM/FBS using a 26 gauge needle. Single cell suspensions were made up to 10.0 ml IMDM/FBS. The concentration of nucleated cells in each suspension was determined by triplicate counts on a hemocytometer. A portion of the cells was further diluted in media to the appropriate concentration before plating for the progenitor assay.
# Colony-forming units (CFUs) were estimated by the methylcellulose method. One milliliter suspensions, containing 2×10^5 nucleated BM cells, in 0.1 ml of IMDM and 0.9 ml MethoCult (M3330), were plated in triplicate in 35 mm tissue culture dishes. […] The MethoCult M3330 contains 30% FBS and 10 μg/ml erythropoietin and is designed for the growth of early erythroid progenitor cells (CFU-E), which were scored after 3 days of incubation at 37° C. in a humidified atmosphere containing 5% CO2. […] Colonies containing more than 20 cells were scored using an inverted microscope with brightfield optics and 40× or 100× magnification.
smiles,measurement,setting,value
"Cl.O[C@H]1[C@H]2[C@H](O)CCCN2C[C@@H]1O [swainsonine hydrochloride, (−)-(1S,2S,8R,8aR)-1,2,8-trihydroxyoctahydro-indolizidine hydrochloride salt]",increase in the number of early CFU-E,0.03 μg/ml to 10 μg/ml in vitro,~3 fold
same,"number of early CFU-E, counted on day 3",added to methylcellulose in vitro,significantly increased
same,mean CFU-E of triplicate counts ± SD from 2 × 10^5 nucleated BM cells,"mouse 1 (control), 0.3 μg/ml in vitro, in vitro control 54 ± 12",75 ± 16
same,mean CFU-E of triplicate counts ± SD from 2 × 10^5 nucleated BM cells,"mouse 1 (control), 3 μg/ml in vitro, in vitro control 54 ± 12",87 ± 16
same,mean CFU-E of triplicate counts ± SD from 2 × 10^5 nucleated BM cells,"mouse 2 (GD0039 treated in vivo, 20 μg/day for four days), 0.3 μg/ml in vitro",97 ± 4
same,mean CFU-E of triplicate counts ± SD from 2 × 10^5 nucleated BM cells,"mouse 2 (GD0039 treated in vivo, 20 μg/day for four days), 3 μg/ml in vitro",127 ± 18
same,mean CFU-E of triplicate counts ± SD from 2 × 10^5 nucleated BM cells,"mouse 2 (GD0039 treated in vivo, 20 μg/day for four days), no treatment in vitro",22 ± 5
